# Laboratory results as given in patent publication US20120070451A1, “METHODS AND COMPOSITIONS FOR MODULATING CARDIAC CONTRACTILITY” (Consiglio Nazionale Delle Ricerche, priority 2009, published 2012).
# Assays:
# [1] = tested on: Cavα1 currents; assay: Whole-cell patch clamp Ca2+ current (ICa,L) in cotransfected tsA-201 cells with or without serum; format: cell-based; settings: cotransfection with Cavα1; 36 h
# Experimental: FIG. 6. Akt phosphorylation of Cavβ2 preserves Cavα1 currents. Ca^2+ currents recorded in cotransfected tsA-201 cells with YFP-Cavα1 and either Cavβ2-WT, Cavβ2-SE, or Cavβ2-SA mutant, cultivated for 36 h in the presence or absence of fetal bovine serum (10%). Currents were recorded 1-2 minutes after the whole-cell configuration was achieved (i.e. after stabilization of the current) and were elicited by a 0 mV depolarization of 200 ms duration applied from a holding potential of −80 mV. Currents are normalized to cell capacitance (Current density, pA/pF). Representative current traces are shown. n>35 at each condition, (*P<0.05 compared to YFP-Cavα1, ANOVA).
# FIG. 7. […] (C) Wild-type Cavα1 subunit (alone or cotransfected with Cavβ2SE) and its in-frame ΔPEST mutants (Cavα1-ΔP and Cavα1-ΔH) half-lives were determined in COST cells. After overnight starvation, transfected cells were pulse-chased and analyzed along a time course (*P<0.001 compared to Cavα1, ANOVA; n=3). […] (F) Ca^2+ currents recorded in tsA-201 cells cotransfected with Cavβ2-WT and either Cavα1-WT or Cavα1-ΔH and cultivated for 36 h in the presence or absence of fetal bovine serum (10%). […]
# Macroscopic Ice, was recorded at room temperature (˜22° C.) using the whole-cell patch clamp technique in native cells as previously described (Aimond et al., 2005; Maier et al., 2003). […]
# [2] = tested on: Cavα1; assay: Western blot of Cavα1 protein level in 293T cells co-transfected with Cavα1 and Cavβ2 variants; format: cell-based
# Experimental: FIG. 5. Akt phosphorylation of Cavβ2 protects Cavα1 from protein degradation. (A-C) YFP-Cavα1 co-transfected 293T cells with the indicated mutant variant of Cavβ2. Cells were serum-starved overnight and treated with (A) […] or (B-C) 5 μM Akt inhibitor as indicated. The expression of YFP-Cavα1 in lysates was monitored by Western blot analysis with anti-YFP antibody, and normalized based on transfection efficiency (Cav(32) and protein amount (Tubulin) (n=3). (D) Cavα1 and Cavβ2 co-transfected 293T cells were treated with siAkt expressing vector as indicated. 3 days post transfection, cell lysate was tested by Western blot analysis. Protein loading was normalized to GAPDH levels. Representative experiments are shown (n=3).
# FIG. 12. Cavβ2 interacts with Akt isoforms and Akt affects Cavα1 protein stability. (A) Immunoprecipitated Akt isoforms from WT cardiac extracts from mice treated or not with insulin (1 mU/g) assayed for Cavβ2. Input protein in each co-immunoprecipitation is shown. (B) Cavα1, Cavα1-ΔP, or Cavα1-ΔH co-transfected 293T cells with either Cavβ2 or Cavβ2-SE were infected with indicated active (AdAkt) or dominant negative (AdAktDN) Akt expressing adenoviral vectors. Cells were serum-starved overnight as indicated. The expression of Cavα1 and phosphorylation of GSK in lysates was monitored by Western blot analysis. (C) Cavα1, Cavα1-ΔP, or Cavα1 co-transfected 293T cells with either Cavβ2 or Cavβ2-SE were treated with siAkt expressing vector as indicated. 3 days post transfection, cells were lysated for protein extraction. Protein loading was normalized to GAPDH levels. Representative experiments are shown (n=3).
# To directly assess whether Akt phosphorylation of Cavβ2 protects Cavα1 from protein degradation, we constructed a mutant of Cavβ2 in which the Serine 625, contained in the putative Akt—consensus site (R—X—X—R—S/T), was replaced by Glutamate (Cavβ2-SE) to mimic phosphorylation. […]
# Proteins expression was evaluated in total lysates or cell fractions by Western blot analysis according to standard procedures. […]
# [3] = tested on: Cavβ2; assay: Cavβ2 phosphorylation in hearts of insulin-treated mice (PAS antibody); format: in vivo, mouse; settings: 1 mU/g insulin, 20 min post treatment
# Experimental: FIG. 4. Akt interacts with and phosphorylates Cavβ2. (A) Coimmunoprecipitation assay of Akt and Cavβ2. Ventricular homogenates from WT and HA-E40K-Akt transgenic mice (Tg Akt) immunoprecipitated with antibodies against HA and immunoblotted for Cavβ2 as well as HA as a control. (B) Examination of Cavβ2 phosphorylation by Akt. In vitro kinase assays were performed with immunoprecipitated Cavβ2 incubated with recombinant active Akt and ^32P labeled ATP (left) or immunoprecipitated Cavβ2 from WT and KO cardiac extracts from mice treated or not with insulin (1 mU/g) using PAS (Phospho-Akt Substrate) antibody (right). (C) Back-phosphorylation assay of Cavβ2 from WT and KO hearts. Immunoprecipitated Cavβ2 from solubilized membranes was in vitro back-phosphorylated using recombinant active Akt and [γ^32]ATP. Precipitate amounts were assayed for ^32PCavβ2 and total Cavβ2. Representative experiments are shown (n=4).
# To determine whether Cavβ2 can be phosphorylated by Akt, Cavβ2-immunoprecipitates from cardiac homogenates were incubated with recombinant active Akt and [γ-^32]ATP. A band corresponding to phosphorylated Cavβ2 was detected only in the presence of the kinase (FIG. 4B, left panel). To determine whether the Cavβ2 subunit was phosphorylated by Akt in vivo, we treated overnight-starved mice with 1 mU/g insulin to induce activation of Akt (Bayascas et al., 2008). […]
Substance,"ICa,L in serum-free medium compared to serum-containing medium [1]",Cavα1 protein level under Akt inhibitor ([2]; 5 μM Akt inhibitor),Cavα1 protein levels compared to cotransfection with Cavβ2-WT ([2]; 293T cells cotransfected with Cavα1),Phosphorylation of Cavβ2 in heart [3],Cavα1 expression on insulin treatment ([2]; Cavβ2-WT cotransfected cells)
Cavβ2-SE: mutant of Cavβ2 in which Serine 625 in the Akt consensus site was replaced by Glutamate to mimic phosphorylation,completely counteracted this reduction,counteracted the downregulation of Cavα1,increased,,
insulin [reference compound],,,,insulin-stimulated phosphorylation of Cavβ2 in WT but not in KO hearts,increased
